Measured values from patent US11717508B2, “Compounds, compositions, and methods for inhibiting bacterial growth” (priority 2016, dated 2023).
Several values for one entry are separate records, joined by “and”; a condition that tells them apart may be missing. Equal values may be shown once. Read-outs that look alike come from different tables or passages of the source.

What was measured:
DosRST regulon = format: cell-based; conditions: 40 μM, 6 days
CDC1551(ΔdosR) mutant = format: cell-based; conditions: for log2 Fold change: DosR mutant, HC101A vs DMSO; for Counts per million (CPM): DosR mutant treated with HC101A, replicates 1, 2

## C[C@@H]1CC[C@H]2[C@@H](C)C(=O)O[C@@H]3O[C@]4(C)CC[C@@H]1[C@]32OO4 [HC101A, artemisinin, reference compound]
DosRST regulon
  genes inhibited that are not modulated in the CDC1551(ΔdosR) mutant: 157 genes
DosRST regulon; >2-fold, p<0.05
  genes downregulated by compound that are also downregulated in the CDC1551(ΔdosR) mutant: 85 genes
CDC1551(ΔdosR) mutant; 40 μM, 6 days, >2-fold, p<0.05
  downregulated genes in CDC1551(ΔdosR) mutant treated with compound: 69 genes
CDC1551(ΔdosR) mutant; gene MT0169 Rv0160c PE
  log2 Fold change: −1.408
CDC1551(ΔdosR) mutant; gene MT0258 Rv0244c fadE5
  log2 Fold change: −1.069
CDC1551(ΔdosR) mutant; gene MT0273 Rv0260c
  log2 Fold change: −1.854
CDC1551(ΔdosR) mutant; gene MT0292 Rv0280 PPE
  Counts per million (CPM): 31.79 CPM and 16.54 CPM
  log2 Fold change: −1.247
CDC1551(ΔdosR) mutant; gene MT0329 Rv0315
  Counts per million (CPM): 113.2 CPM and 189.1 CPM
  log2 Fold change: −1.246
CDC1551(ΔdosR) mutant; gene MT0456 Rv0440 groEL2
  Counts per million (CPM): 5,842.91 CPM and 4,666.11 CPM
  log2 Fold change: −1.245
CDC1551(ΔdosR) mutant; gene MT0483 Rv0467 aceA
  Counts per million (CPM): 884.5 CPM and 561.1 CPM
  log2 Fold change: −1.499
CDC1551(ΔdosR) mutant; gene MT0484
  Counts per million (CPM): 179.4 CPM and 142.8 CPM
  log2 Fold change: −1.278
CDC1551(ΔdosR) mutant; gene MT0493 Rv0475
  Counts per million (CPM): 790.8 CPM and 938.1 CPM
  log2 Fold change: −1.077
CDC1551(ΔdosR) mutant; gene MT0532 Rv0511 cysG
  log2 Fold change: 1.218
CDC1551(ΔdosR) mutant; gene MT0533 Rv0512 hemB
  log2 Fold change: 1.276
CDC1551(ΔdosR) mutant; gene MT0583 Rv0557
  log2 Fold change: 1.113
CDC1551(ΔdosR) mutant; gene MT0586 Rv0560c
  log2 Fold change: 1.95
CDC1551(ΔdosR) mutant; gene MT0658 Rv0630c recB
  log2 Fold change: 1.021
CDC1551(ΔdosR) mutant; gene MT0705 Rv0676c mmpL5
  log2 Fold change: 1.881
CDC1551(ΔdosR) mutant; gene MT0706 Rv0677c mmpS5
  log2 Fold change: 1.662
CDC1551(ΔdosR) mutant; gene MT0706.1 Rv0678
  log2 Fold change: 1.572
CDC1551(ΔdosR) mutant; gene MT0772.5 Rv0747 PE_PGRS
  log2 Fold change: 1.043
CDC1551(ΔdosR) mutant; gene MT0808 Rv0784
  log2 Fold change: 2.116
CDC1551(ΔdosR) mutant; gene MT0901 Rv0878c PPE
  Counts per million (CPM): 18.57 CPM and 12.14 CPM
  log2 Fold change: −1.047
CDC1551(ΔdosR) mutant; gene MT0908 Rv0885
  Counts per million (CPM): 437.9 CPM and 441.4 CPM
  log2 Fold change: −3.4
CDC1551(ΔdosR) mutant; gene MT0909 Rv0886 fprB
  Counts per million (CPM): 103.6 CPM and 55.4 CPM
  log2 Fold change: −3.149
CDC1551(ΔdosR) mutant; gene MT0911 Rv0888
  Counts per million (CPM): 9.416 CPM and 8.907 CPM
  log2 Fold change: −1.599
CDC1551(ΔdosR) mutant; gene MT0915.1
  Counts per million (CPM): 9.867 CPM and 9.495 CPM
  log2 Fold change: −1.202
CDC1551(ΔdosR) mutant; gene MT0956 Rv0929 pstC2
  log2 Fold change: 1.037
CDC1551(ΔdosR) mutant; gene MT1019 Rv0990c
  Counts per million (CPM): 62.69 CPM and 83.49 CPM
  log2 Fold change: −1.236
CDC1551(ΔdosR) mutant; gene MT1020
  Counts per million (CPM): 529.4 CPM and 1,032.48 CPM
  log2 Fold change: −1.261
CDC1551(ΔdosR) mutant; gene MT1073 Rv1043c
  log2 Fold change: 1.069
CDC1551(ΔdosR) mutant; gene MT1123 Rv1091 PE_PGRS
  log2 Fold change: 1.015
CDC1551(ΔdosR) mutant; gene MT1224 Rv1187 rocA
  Counts per million (CPM): 50.05 CPM and 29.85 CPM
  log2 Fold change: −1.028
CDC1551(ΔdosR) mutant; gene MT1233 Rv1195 PE
  Counts per million (CPM): 282.5 CPM and 86.53 CPM
  log2 Fold change: −1.537
CDC1551(ΔdosR) mutant; gene MT1296 Rv1257c
  log2 Fold change: 1.198
CDC1551(ΔdosR) mutant; gene MT1297 Rv1258c
  log2 Fold change: 1.744
CDC1551(ΔdosR) mutant; gene MT1303 Rv1265
  log2 Fold change: 1.132
CDC1551(ΔdosR) mutant; gene MT1385
  Counts per million (CPM): 26.31 CPM and 28.68 CPM
  log2 Fold change: −1.733
CDC1551(ΔdosR) mutant; gene MT1424 Rv1380 pyrB
  log2 Fold change: 1.245
CDC1551(ΔdosR) mutant; gene MT1425 Rv1381 pyrC
  log2 Fold change: 1.176
CDC1551(ΔdosR) mutant; gene MT1426
  log2 Fold change: 1.289
CDC1551(ΔdosR) mutant; gene MT1427 Rv1383 car A
  log2 Fold change: 1.005
CDC1551(ΔdosR) mutant; gene MT1428 Rv1384 carB
  log2 Fold change: 1.115
CDC1551(ΔdosR) mutant; gene MT1429 Rv1385 pyrF
  log2 Fold change: 1.522
CDC1551(ΔdosR) mutant; gene MT1430 Rv1386 PE
  Counts per million (CPM): 77.39 CPM and 47.87 CPM
  log2 Fold change: −1.005
CDC1551(ΔdosR) mutant; gene MT1431 Rv1387 PPE
  Counts per million (CPM): 317.7 CPM and 543.6 CPM
  log2 Fold change: −1.201
CDC1551(ΔdosR) mutant; gene MT1484 Rv1439c
  Counts per million (CPM): 6.965 CPM and 6.852 CPM
  log2 Fold change: −1.508
CDC1551(ΔdosR) mutant; gene MT1585.1
  Counts per million (CPM): 293.5 CPM and 393.7 CPM
  log2 Fold change: −2.24
CDC1551(ΔdosR) mutant; gene MT1586 Rv535 Rv1535
  Counts per million (CPM): 44.69 CPM and 38.96 CPM
  log2 Fold change: −1.971
CDC1551(ΔdosR) mutant; gene MT1620 Rv1569 bioF
  log2 Fold change: 1.182
CDC1551(ΔdosR) mutant; gene MT1627
  Counts per million (CPM): 22.44 CPM and 21.44 CPM
  log2 Fold change: −1.25
CDC1551(ΔdosR) mutant; gene MT1628 Rv1592c
  Counts per million (CPM): 334.3 CPM and 332.3 CPM
  log2 Fold change: −1.21
CDC1551(ΔdosR) mutant; gene MT1736
  Counts per million (CPM): 181.3 CPM and 300.2 CPM
  log2 Fold change: −1.039
CDC1551(ΔdosR) mutant; gene MT1775
  Counts per million (CPM): 17.8 CPM and 12.82 CPM
